Activity calls are given as the source filed them. The rule behind the calls is not given here.
How the values were obtained:
T1R2/T1R3 (Homo sapiens) [1] = target: T1, T1R2/T1R3 (Homo sapiens) (UniProt Q8TE23+Q7RTX0); test: Activity at human T1R2/T1R3 expressed in HEK293T cells co-expressing Galpha-16-gust44 assessed as F340/F380 ratio at 1.25 mM; type: cell-based; settings: HEK-293T
T1R2/T1R3 (Homo sapiens) [2] = target: T1, T1R2/T1R3 (Homo sapiens); test: Activity at human T1R2/T1R3 expressed in HEK293T cells co-expressing Galpha-16-gust44 assessed as F340/F380 ratio at 1.25 mM in presence of T1R2/T1R3 antagonist lactisole; type: functional, cell-based; settings: HEK-293T

Activity (T1R2/T1R3 (Homo sapiens) [1]) | Activity (T1R2/T1R3 (Homo sapiens) [2]) | SMILES
Active | inactive | N[C@H](Cc1cccc(C2(C(F)(F)F)N=N2)c1)C(=O)O
Active | inactive | N[C@H](Cc1ccc(C2(C(F)(F)F)N=N2)cc1)C(=O)O

Source: ChEMBL document CHEMBL1158521, “Photoactive ligands probing the sweet taste receptor. Design and synthesis of highly potent diazirinyl D-phenylalanine derivatives” (Bioorg Med Chem Lett, 2010)
